Assay results from patent US10512264B2, “Herbicidal mixtures” (Syngenta Participations AG, priority 2015, dated 2019).
“And” between values parts separate entries of the source, which are not always exact repeats. Equal entries are not always repeated.

What was measured:
Format in all cases: in vivo
Conditions in all cases: 21 days after application
Ipomea purpurea (PHBPU) = assay: Herbicidal action, pre-emergence glasshouse test, Ipomea purpurea
Method: (§1) Seeds of a variety of test species were sown in standard soil in pots. After cultivation for one day (pre-emergence) under controlled conditions in a glasshouse (at 24/18° C., at day/night; 16 hours light; 65% humidity), the plants were sprayed with an aqueous spray solution derived from the formulation of the technical active ingredient dissolved in acetone plus formulation A containing 10.56 wt % Emulsogen EL, 42.22 wt % N-MethylPyrrolidon, 2.22 wt % DPG-Monoethyl ether at a 1:20 ratio (technical active ingredient:formulation A). To achieve the mixture treatments, the appropriate concentration of the mixture partner (commercial formulation) was added to the solution in order to achieve the desired experimental compound:mixture partner ratio).
(§2) After application, the test plants were grown in a glasshouse under controlled conditions (at 24/18° C. day/night; 16 hours light; 65% humidity) and watered twice daily. Herbicidal activity was evaluated 21 days after application in a 100-0 scale (100=total damage to plant; 0=no damage to plant).

[1] = system: Ambrosia artimisifolia (AMBEL); assay: Herbicidal action, pre-emergence glasshouse test, Ambrosia artimisifolia
Method: as §1, §2

[2] = system: Digitaria sanguinalis (DIGSA); assay: Herbicidal action, pre-emergence glasshouse test, Digitaria sanguinalis
Method: as §1, §2

Setaria fabarii (SETFA) = assay: Herbicidal action, pre-emergence glasshouse test, Setaria fabarii
Method: as §1, §2

Bidens pilosa (BIDPI) = assay: Herbicidal action, pre-emergence glasshouse test, Bidens pilosa
Method: as §1, §2

[3] = system: Euphorbia heterophylla (EPHHL); assay: Herbicidal action, pre-emergence glasshouse test, Euphorbia heterophylla
Method: as §1, §2

Molecule | Activity (% of untreated) Observed (Ipomea purpurea (PHBPU); applied alone at 25 g/ha) | Activity (% of untreated) Observed (Ipomea purpurea (PHBPU); applied alone at 50 g/ha) | Activity (% of untreated) Observed (Ipomea purpurea (PHBPU); applied alone at 100 g/ha) | Activity (% of untreated) Observed ([1]; applied alone at 10 g/ha) | Activity (% of untreated) Observed ([1]; applied alone at 50 g/ha) | Activity (% of untreated) Observed ([1]; applied alone at 100 g/ha) | Activity (% of untreated) Observed ([2]; alone 10 g/ha) | Activity (% of untreated) Observed ([2]; alone 50 g/ha) | Activity (% of untreated) Observed ([2]; alone 100 g/ha) | Activity (% of untreated) Observed (Setaria fabarii (SETFA); alone 10 g/ha) | Activity (% of untreated) Observed (Setaria fabarii (SETFA); alone 50 g/ha) | Activity (% of untreated) Observed (Setaria fabarii (SETFA); alone 100 g/ha) | Activity (% of untreated) Observed (Bidens pilosa (BIDPI); applied alone at 10 g/ha) | Activity (% of untreated) Observed (Bidens pilosa (BIDPI); applied alone at 25 g/ha) | Activity (% of untreated) Observed ([3]; applied alone at 100 g/ha) | Activity (% of untreated) Observed ([3]; applied alone at 250 g/ha) | Activity (% of untreated) Observed (Ipomea purpurea (PHBPU); applied alone at 250 g/ha) | Activity (% of untreated) Observed ([1]; applied alone at 250 g/ha) | Activity (% of untreated) Observed ([2]; alone 250 g/ha) | Activity (% of untreated) Observed (Setaria fabarii (SETFA); alone 250 g/ha) | also measured
CS(=O)(=O)c1ccc(C(=O)C2C(=O)CCCC2=O)c([N+](=O)[O-])c1 [Mesotrione, reference compound] | 0 % of untreated | 0 % of untreated | 50 % of untreated | 7.5 % of untreated | 12.5 % of untreated | 25 % of untreated | 45 % of untreated | 5 % of untreated | 0 % of untreated | 0 % of untreated | 35 % of untreated | 57.5 % of untreated | 10 % of untreated | 30 % of untreated | – | – | – | – | – | – | –
Bicyclopyrone [reference compound] | 0 % of untreated | 0 % of untreated | 50 % of untreated | 70 % of untreated | 12.5 % of untreated | 25 % of untreated | 87.5 % of untreated | 5 % of untreated | 0 % of untreated | 17.5 % of untreated | 35 % of untreated | 57.5 % of untreated | 0 % of untreated | 5 % of untreated | 100 % of untreated | – | – | – | – | – | Activity (% of untreated) Observed ([3]; applied alone at 10 g/ha): 32.5 % of untreated; Activity (% of untreated) Observed ([3]; applied alone at 25 g/ha): 77.5 % of untreated and 95 % of untreated; Activity (% of untreated) Observed ([3]; applied alone at 50 g/ha): 98.5 % of untreated; Activity (% of untreated) Observed (Ipomea purpurea (PHBPU); applied alone at 10 g/ha): 0 % of untreated
COC1=C(C)C(O)N(c2cc(C(C)(C)C)ncn2)C1=O (stereo not drawn) [Compound 1.1] | – | – | 0 % of untreated | – | – | 37.5 % of untreated | – | – | 0 % of untreated | – | – | 0 % of untreated | – | – | 12.5 % of untreated | 70 % of untreated | 5 % of untreated | 85 % of untreated | 65 % of untreated | 70 % of untreated | –
COC1=C(C)C(O)N(c2cc(C(C)(C)C)on2)C1=O (stereo not drawn) [Compound 1.2] | – | – | 2.5 % of untreated | – | – | 42.5 % of untreated | – | – | 0 % of untreated | – | – | 0 % of untreated | – | – | 10 % of untreated | 80 % of untreated | 35 % of untreated | 92.5 % of untreated | 5 % of untreated | 72.5 % of untreated | Activity (% of untreated) Observed (Bidens pilosa (BIDPI); applied alone at 100 g/ha): 65 % of untreated; Activity (% of untreated) Observed (Bidens pilosa (BIDPI); applied alone at 250 g/ha): 85 % of untreated
CC1=C(Cl)C(=O)N(c2cc(C(C)(C)C)on2)C1O (stereo not drawn) [Compound 1.3] | – | – | – | – | – | – | – | – | – | – | – | – | – | – | – | 87.5 % of untreated | 85 % of untreated and 72.5 % of untreated | 86 % of untreated and 99 % of untreated | 100 % of untreated | – | Activity (% of untreated) Observed ([3]; applied alone at 31.25 g/ha): 5 % of untreated; Activity (% of untreated) Observed ([3]; applied alone at 62.5 g/ha): 15 % of untreated; Activity (% of untreated) Observed ([3]; applied alone at 125 g/ha): 35 % of untreated; Activity (% of untreated) Observed ([3]; applied alone at 500 g/ha): 100 % of untreated; Activity (% of untreated) Observed (Ipomea purpurea (PHBPU); applied alone at 31.25 g/ha): 67.5 % of untreated; Activity (% of untreated) Observed (Ipomea purpurea (PHBPU); applied alone at 62.5 g/ha): 97.5 % of untreated; Activity (% of untreated) Observed (Ipomea purpurea (PHBPU); applied alone at 125 g/ha): 40 % of untreated and 50 % of untreated; Activity (% of untreated) Observed (Ipomea purpurea (PHBPU); applied alone at 500 g/ha): 100 % of untreated and 90 % of untreated; Activity (% of untreated) Observed ([1]; applied alone at 31.25 g/ha): 85 % of untreated; Activity (% of untreated) Observed ([1]; applied alone at 62.5 g/ha): 97 % of untreated; Activity (% of untreated) Observed ([1]; applied alone at 125 g/ha): 85 % of untreated and 98.5 % of untreated; Activity (% of untreated) Observed ([1]; applied alone at 500 g/ha): 98.5 % of untreated and 99 % of untreated; Activity (% of untreated) Observed ([2]; alone 31.25 g/ha): 0 % of untreated; Activity (% of untreated) Observed ([2]; alone 62.5 g/ha): 65 % of untreated; Activity (% of untreated) Observed ([2]; alone 125 g/ha): 99 % of untreated; Activity (% of untreated) Observed ([2]; alone 500 g/ha): 99.5 % of untreated and 99 % of untreated; Activity (% of untreated) Observed (Setaria fabarii (SETFA); alone 31.25 g/ha): 90 % of untreated; Activity (% of untreated) Observed (Setaria fabarii (SETFA); alone 62.5 g/ha): 100 % of untreated
S-Metolachlor | – | – | – | – | – | – | – | – | – | – | – | – | – | – | – | – | – | – | – | – | Activity (% of untreated) Observed ([2]; alone 80 g/ha): 65 % of untreated; Activity (% of untreated) Observed ([2]; alone 200 g/ha): 100 % of untreated; Activity (% of untreated) Observed (Setaria fabarii (SETFA); alone 80 g/ha): 85 % of untreated; Activity (% of untreated) Observed (Setaria fabarii (SETFA); alone 200 g/ha): 98.5 % of untreated
